# Source: patent US12583861B2, “Derivatives of imidazo[4,5-d]pyridazine, their preparation and their therapeutic application” (SANOFI, priority 2021, dated 2026)
# pEC50: −log10 of the molar value. Like-named read-outs stand apart in the source and are kept apart here.
# What was measured:
# Type in all cases: cell-based
# human TLR8 = molecular target: T1, human TLR8 (Homo sapiens, UniProt Q9NR97); assay: HEK-Blue hTLR8 reporter cell assay (SEAP, NF-kB/AP-1) for stimulation of human TLR8; details: HEK-Blue hTLR8 cells, 24 h incubation, SEAP readout; read-out: TLR8_EC50
# T1 construct: host or cells: HEK293 (HEK-Blue hTLR8)
# T1 sequence (Q9NR97 27-1041): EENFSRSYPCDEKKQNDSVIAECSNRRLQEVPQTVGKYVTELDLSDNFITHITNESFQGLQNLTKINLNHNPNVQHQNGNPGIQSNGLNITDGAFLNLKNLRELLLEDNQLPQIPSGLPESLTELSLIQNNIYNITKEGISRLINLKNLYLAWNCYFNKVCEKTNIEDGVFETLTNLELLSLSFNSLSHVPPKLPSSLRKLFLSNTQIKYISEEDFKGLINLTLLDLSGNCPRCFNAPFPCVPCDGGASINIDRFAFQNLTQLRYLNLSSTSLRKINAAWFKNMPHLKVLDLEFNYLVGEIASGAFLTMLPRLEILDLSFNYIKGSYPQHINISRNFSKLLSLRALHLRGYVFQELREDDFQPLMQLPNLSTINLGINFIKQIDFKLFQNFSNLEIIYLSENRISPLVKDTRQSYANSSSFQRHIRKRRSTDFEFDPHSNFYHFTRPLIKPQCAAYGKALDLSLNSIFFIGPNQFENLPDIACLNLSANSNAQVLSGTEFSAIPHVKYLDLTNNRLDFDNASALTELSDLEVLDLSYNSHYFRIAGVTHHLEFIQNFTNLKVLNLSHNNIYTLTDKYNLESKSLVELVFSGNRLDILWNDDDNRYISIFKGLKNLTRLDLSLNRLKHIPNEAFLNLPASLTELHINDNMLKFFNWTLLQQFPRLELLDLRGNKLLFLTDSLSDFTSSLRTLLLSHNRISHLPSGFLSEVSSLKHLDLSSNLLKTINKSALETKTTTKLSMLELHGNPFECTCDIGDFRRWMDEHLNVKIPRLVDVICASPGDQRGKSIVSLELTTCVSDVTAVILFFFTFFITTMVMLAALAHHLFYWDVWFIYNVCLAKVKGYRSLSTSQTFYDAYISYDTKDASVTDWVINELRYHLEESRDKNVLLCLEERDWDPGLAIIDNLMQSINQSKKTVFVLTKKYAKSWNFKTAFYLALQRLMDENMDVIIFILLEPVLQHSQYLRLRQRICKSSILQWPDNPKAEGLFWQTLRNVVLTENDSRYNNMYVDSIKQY
# Outline: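 HEK293 cells carrying hTLR8 and a SEAP reporter driven by NF-κB/AP-1 sites were seeded at 3.10E4 cells/well and held 18 to 24 h at 37° C., 5% CO2 before compound addition. Supernatant SEAP measured with QUANTI-Blue™.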
# IFN-α2a = IFN-α2a cytokine activation in human PBMC (MSD assay)
# Description: (§1) The other below tests involving measuring the in vitro activity of some compounds of the disclosure on cytokines IFN-α2a, IL-6, IL29 and TNF-α were carried out using human PBMC (PBMCs).
# (§2) The activity described below, with respect to TLR7, TLR8, IFN-α2a, IL-6, IL29 and TNF-α, is given by the half maximal effective concentration (EC50), which corresponds to the concentration required to obtain a 50% of the activation. The lower the EC50, the less the concentration of the compound is required to produce 50% of maximum activation and the higher the potency.
# (§3) In Vitro Assay to Determine IFN-α2a, IL-6, IL29 and TNF-α Cytokine Activation:
# (§4) Peripheral blood mononuclear cells were isolated by Ficoll density gradient centrifugation from peripheral blood samples obtained from healthy donors (EFS). Isolated PBMCs are washed twice with PBS and resuspended in RPMI-1640 medium supplement with 10% fetal bovine serum (FBS) at 5.10^5 cells/well in a 96-well plate. The cells were then incubated with the compounds to test at various doses (20 μM to 4.8.10-6 μM final) for 24 h at 37° C., 5% CO2. After 24 h treatment, the plates are centrifuged and the supernatant were collected and assayed for cytokines IFN-α2a, IL-6, IL29 and TNF-α using the Meso Scale Discovery (MSD) assay platform according to the manufacturer's instructions. Briefly, 25 μL of cell culture supernatants were incubated for 1 h at Room Temperature (RT) in custom Multi-Spot 96-well plates prior coated with capture antibodies. After washing, SULFO-TAG® labeled detection antibodies were added to each of the wells and incubated for 1 h RT before adding a read buffer.
# IL-6 = IL-6 cytokine activation in human PBMC (MSD assay); details: read-out: IL6 EC50
# Description: as §1, §2, §3, §4
# IL29 = IL29 cytokine activation in human PBMC (MSD assay)
# Description: as §1, §2, §3, §4
# TNF-α = TNF-α cytokine activation in human PBMC (MSD assay)
# Description: as §1, §2, §3, §4
Structure (SMILES),pEC50 (human TLR8),"pEC50 (IFN-α2a; 24 h, 2,2,2-trifluoroacetate)","pEC50 (IL-6; 24 h, 2,2,2-trifluoroacetate)","pEC50 (IL29; 24 h, 2,2,2-trifluoroacetate)","pEC50 (TNF-α; 24 h, 2,2,2-trifluoroacetate)","pEC50 (IFN-α2a; Homo sapiens, PBMC, 24 h)","pEC50 (IL-6; Homo sapiens, PBMC, 24 h)","pEC50 (IL29; Homo sapiens, PBMC, 24 h)","pEC50 (TNF-α; Homo sapiens, PBMC, 24 h)",pEC50 (IFN-α2a; 24 h),pEC50 (IL-6; 24 h),pEC50 (IL29; 24 h),pEC50 (TNF-α; 24 h)
"CCCCc1nc2c(N)nnc(OC(C)C)c2n1Cc1ccc(CN)cc1 [Compound 22, 1-(4-(aminomethyl)benzyl)-2-butyl-7-isopropoxy-1H-imidazo[4,5-d]pyridazin-4-amine 2,2,2-trifluoroacetate]",5.58,10.00,6.78,10.00,5.55,–,–,–,–,–,–,–,–
"CCCCc1nc2c(N)nnc(-c3cc[nH]c3)c2n1Cc1ccc(OC)cc1 [Compound 14, 2-butyl-1-(4-methoxybenzyl)-7-(1H-pyrrol-3-yl)-1H-imidazo[4,5-d]pyridazin-4-amine]",< 4.70,–,–,–,–,7.74,6.97,7.70,6.15,–,–,–,–
"CCCCc1nc2c(N)nnc(OC(C)C)c2n1Cc1cccc(CN)c1 [Compound 33, 1-(3-(aminomethyl)benzyl)-2-butyl-7-isopropoxy-1H-imidazo[4,5-d]pyridazin-4-amine 2,2,2-trifluoroacetate]",6.47,–,–,–,–,8.52,7.28,8.70,5.89,–,–,–,–
"CCCCc1nc2c(N)nnc(OC(C)C)c2n1Cc1ccc(CN)cc1 [Compound 21, 1-(4-(aminomethyl)benzyl)-2-butyl-7-isopropoxy-1H-imidazo[4,5-d]pyridazin-4-amine]",5.86,–,–,–,–,–,–,–,–,9.40,8.10,9.52,6.55
"CCCCc1nc2c(N)nnc(OC(C)C)c2n1Cc1ccccn1 [Compound 75, 2-butyl-7-isopropoxy-1-(pyridin-2-ylmethyl)-1H-imidazo[4,5-d]pyridazin-4-amine]",< 4.70,–,–,–,–,7.77,6.74,7.47,5.29,–,–,–,–
"CCCCc1nc2c(N)nnc(SC(C)C)c2n1Cc1ccc(OC)cc1 [Compound 3, 2-butyl-7-(isopropylthio)-1-(4-methoxybenzyl)-1H-imidazo[4,5-d]pyridazin-4-amine]",< 4.70,–,–,–,–,7.21,5.85,7.08,5.55,–,–,–,–
"CCCCc1nc2c(N)nnc(N(C)C)c2n1C [Compound 41, 2-butyl-N7,N7,1-trimethyl-1H-imidazo[4,5-d]pyridazine-4,7-diamine]",5.14,–,–,–,–,5.91,5.89,5.52,5.28,–,–,–,–
"CCCCc1nc2c(N)nnc(OC(C)C)c2n1C[C@H]1CCC[C@@H](N)C1 (racemic) [Compound 23, 1-(((1S,3R)-3-aminocyclohexyl)methyl)-2-butyl-7-isopropoxy-1H-imidazo[4,5-d]pyridazin-4-amine (and enantiomer)]",4.83,–,–,–,–,8.52,6.69,8.52,5.26,–,–,–,–
"CCCCc1nc2c(N)nnc(OC(C)C)c2n1Cc1ccc(C=O)cc1 [Compound 34, 4-((4-amino-2-butyl-7-isopropoxy-1H-imidazo[4,5-d]pyridazin-1-yl)methyl)benzaldehyde]",< 4.70,–,–,–,–,7.44,7.12,7.55,6.18,–,–,–,–
"CCCCc1nc2c(N)nnc(NCCOC)c2n1Cc1ccc(OC)cc1 [Compound 49, 2-butyl-1-(4-methoxybenzyl)-N7-(2-methoxyethyl)-1H-imidazo[4,5-d]pyridazine-4,7-diamine]",< 4.70,–,–,–,–,7.12,5.76,6.41,5.26,–,–,–,–

# Next, values leading:
pEC50 (human TLR8),"pEC50 (IFN-α2a; 24 h, 2,2,2-trifluoroacetate)","pEC50 (IL-6; 24 h, 2,2,2-trifluoroacetate)","pEC50 (IL29; 24 h, 2,2,2-trifluoroacetate)","pEC50 (TNF-α; 24 h, 2,2,2-trifluoroacetate)","pEC50 (IFN-α2a; Homo sapiens, PBMC, 24 h)","pEC50 (IL-6; Homo sapiens, PBMC, 24 h)","pEC50 (IL29; Homo sapiens, PBMC, 24 h)","pEC50 (TNF-α; Homo sapiens, PBMC, 24 h)",pEC50 (IFN-α2a; 24 h),pEC50 (IL-6; 24 h),pEC50 (IL29; 24 h),pEC50 (TNF-α; 24 h),Structure (SMILES)
< 4.70,–,–,–,–,7.20,6.24,7.24,5.76,–,–,–,–,"CCCCc1nc2c(N)nnc(N(C)C)c2n1Cc1ccc(OC)cc1 [Compound 71, 2-butyl-1-(4-methoxybenzyl)-N7,N7-dimethyl-1H-imidazo[4,5-d]pyridazine-4,7-diamine]"
< 4.70,–,–,–,–,7.80,6.83,7.82,6.42,–,–,–,–,"CCCCc1nc2c(N)nnc(OC3CCCC3)c2n1Cc1ccc(OC)cc1 [Compound 9, 2-butyl-7-(cyclopentyloxy)-1-(4-methoxybenzyl)-1H-imidazo[4,5-d]pyridazin-4-amine]"
< 4.70,–,–,–,–,6.95,6.48,7.21,6.19,–,–,–,–,"C=CCOc1nnc(N)c2nc(CCCC)n(Cc3ccc(OC)cc3)c12 [Compound 6, 7-(allyloxy)-2-butyl-1-(4-methoxybenzyl)-1H-imidazo[4,5-d]pyridazin-4-amine]"
< 4.70,–,–,–,–,7.77,6.73,7.54,< 4.70,–,–,–,–,"C=C(C)c1nnc(N)c2nc(CCCC)n(Cc3ccc(OC)cc3)c12 [Compound 17, 2-butyl-1-(4-methoxybenzyl)-7-(prop-1-en-2-yl)-1H-imidazo[4,5-d]pyridazin-4-amine]"
< 4.70,–,–,–,–,6.99,6.34,6.76,6.15,–,–,–,–,"CCCCc1nc2c(N)nnc(OC(C)C)c2n1Cc1ccc(OC)cc1 [Compound 1, 2-butyl-7-isopropoxy-1-(4-methoxybenzyl)-1H-imidazo[4,5-d]pyridazin-4-amine]"
< 4.70,–,–,–,–,7.15,6.26,6.96,5.55,–,–,–,–,"CCCCc1nc2c(N)nnc(C(C)C)c2n1Cc1ccc(OC)cc1 [Compound 18, 2-butyl-7-isopropyl-1-(4-methoxybenzyl)-1H-imidazo[4,5-d]pyridazin-4-amine]"
< 4.70,–,–,–,–,8.52,7.00,8.22,6.24,–,–,–,–,"CCCCc1nc2c(N)nnc(NC(C)C)c2n1Cc1ccc(OC)cc1 [Compound 2, 2-butyl-N7-isopropyl-1-(4-methoxybenzyl)-1H-imidazo[4,5-d]pyridazin-4,7-diamine]"
< 4.70,–,–,–,–,7.85,6.75,7.80,6.34,–,–,–,–,"CCCCc1nc2c(N)nnc(N3CCCC3)c2n1Cc1ccc(OC)cc1 [Compound 10, 2-butyl-1-(4-methoxybenzyl)-7-(pyrrolidin-1-yl)-1H-imidazo[4,5-d]pyridazin-4-amine]"
< 4.70,–,–,–,–,7.05,6.43,7.00,6.04,–,–,–,–,"CCCCc1nc2c(N)nnc(OCC)c2n1Cc1ccc(OC)cc1 [Compound 48, 2-butyl-7-ethoxy-1-(4-methoxybenzyl)-1H-imidazo[4,5-d]pyridazin-4-amine]"
< 4.70,–,–,–,–,7.09,5.71,6.10,< 4.70,–,–,–,–,"CCCCc1nc2c(N)nnc(OCCOC)c2n1Cc1ccc(OC)cc1 [Compound 4, 2-butyl-1-(4-methoxybenzyl)-7-(2-methoxyethoxy)-1H-imidazo[4,5-d]pyridazin-4-amine]"
